In patent US4879381A, “7-(substituted or unsubstituted amino) 3-substituted methyl-^3 cephem-4-carboxylic acid” (Toyoma Chemical Company, Ltd., priority 1980, dated 1989) one finds MIC and LD50 data, which are given here for five compounds.

One series has as its system E. coli NIHJ. In words: Antibacterial activity (MIC, agar plate, standard method of the Japanese Chemotherapeutic Society). Format: cell-based. Conditions: 10^4 cells/plate, 37° C., 20 hours. As to the method: (§1) According to the standard method of the Japanese Chemotherapeutic Society [Chemotherapy, Vol. 23, Pages 1-2 (1975)], a culture obtained by cultivating bacteria in Heart Infusion broth (manufactured by Eken Kagakusha) at 37° C. for 20 hours was inoculated into a Heart Infusion agar medium (manufactured by Eiken Kagakusha) and cultivated at 37° C. for 20 hours, after which the growth of bacteria was examined visually. The minimum inhibitory concentration at which the bacterial growth was inhibited was taken as MIC (μg/ml). The amount of the inoculated bacteria was 10^4 cells/plate (10^6 cells/ml).

For the next series, the system named is Aci. calcoaceticus A-6. Briefly: Antibacterial activity (MIC, agar plate). Format: cell-based. The settings on record: 37° C., 20 hours. How it is done:
as §1

A further series deals with Al. faecalis B-1. In words: Antibacterial activity (MIC, agar plate). Format: cell-based. How it is done:
as §1

The subject of series [1] is E. coli TK3 (Penicillinase-producing bacteria). Briefly: Antibacterial activity (MIC, agar plate). In kind it is cell-based. How it is done: as §1
The next series relates to Ent. cloacae IID977. In words: Antibacterial activity (MIC, agar plate). Format: cell-based. The settings on record: 10^4 cells/plate, 37° C., 20 hours. As to the method:
as §1

For a further series, the system named is Kl. pneumoniae Y-41. In words: Antibacterial activity (MIC, agar plate). Format: cell-based. The settings on record: Kl. pneumoniae Y-41, 10^4 cells/plate, 37° C., 20 hours. How it is done:
as §1

The subject of a further series is Kl. pneumoniae Y-50. Briefly: Antibacterial activity (MIC, agar plate). Format: cell-based. The settings on record: 37° C., 20 hours. As to the method: as §1
The test system of another series is Klebsiella spp Y-72. Briefly: Antibacterial activity (MIC, agar plate). In kind it is cell-based. As to the method:
as §1

A further series has as its system Pro. mirabilis T-100. Briefly: Antibacterial activity (MIC, agar plate). Format: cell-based. Conditions: 37° C., 20 hours. As to the method: as §1
A further series deals with Pro. mirabilis T-111. Briefly: Antibacterial activity (MIC, agar plate). In kind it is cell-based. As to the method:
as §1

The subject of another series is Pro. morganii T-216. Briefly: Antibacterial activity (MIC, agar plate). In kind it is cell-based. As to the method: as §1
In series [2] the test system is Pro. vulgaris GN76 (Cephalosporinase-producing bacteria). In words: Antibacterial activity (MIC, agar plate). In kind it is cell-based. How it is done:
as §1

The next series relates to Ser. marcescens IID620. Briefly: Antibacterial activity (MIC, agar plate). In kind it is cell-based. As to the method:
as §1

The next series is described as follows: in vivo. The settings on record: mouse, intravenous, mice. The text has this:
Three test compounds were introvenously administered to mice (ICR, male, 4 weeks old) to test their acute toxicities.

Where [3] appears, read: Escherichia coli, read-out: MIC.
[4] abbreviates: Acinetobacter calcoaceticus, A6, 10^4 cells/plate, read-out: MIC.
[5] abbreviates: Enterobacter cloacae, read-out: MIC.
[6] abbreviates: Klebsiella pneumoniae, Y41, read-out: MIC.
Where [7] appears, read: Klebsiella pneumoniae, Y50, 10^4 cells/plate, read-out: MIC.
[8] abbreviates: Proteus mirabilis, T100, 10^4 cells/plate, read-out: MIC.
The mark [9] stands for this setting: Morganella morganii, T216, 20 h.
The mark [10] stands for this setting: Proteus vulgaris, Pro. vulgaris GN76 (cephalosporinase-producing), 10^4 cells/plate, 37° C., 20 hours, read-out: MIC.
[11] abbreviates: Serratia marcescens, IID620, 20 h.
[12] abbreviates: Alcaligenes faecalis, B1, Al. faecalis B-1, 10^4 cells/plate, 37° C., 20 hours, read-out: MIC.
[13] abbreviates: Y72, Klebsiella spp Y-72, 10^4 cells/plate, 37° C., 20 hours, read-out: MIC.

Structures can show the parent of a compound that is named as a salt. Where two headings read alike, the source gives them in different places. A value given as a limit tells only on which side of the number the result lay.

`Cc1nnn(CC2=C(C(=O)O)N3C(=O)C(NC(=O)/C(=N\O)c4csc(N)n4)C3SC2)n1` (stereo not drawn) [E, Trifluoroacetic acid salt of 7-[2-(2-aminothiazol-4-yl)-2-(syn)-hydroxyiminoacetamido]-3-(2-(5-methyl-1,2,3,4-tetrazolyl)methyl]-Δ^3-cephem-4-carboxylic acid]: the MIC in the series on E. coli NIHJ (setting [3]) was ≤ 0.1 µg/mL; with Aci. calcoaceticus A-6 (setting [4]) it was 50 µg/mL; against Al. faecalis B-1 (Alcaligenes faecalis, B1, 20 h) it was 3.13 µg/mL; in series [1] (Escherichia coli, E. coli TK3 (penicillinase-producing), 10^4 cells/plate, 37° C., 20 hours, read-out: MIC), 0.78 µg/mL; with Ent. cloacae IID977 (setting [5]) it was 6.25 µg/mL; in the series with Kl. pneumoniae Y-41 (setting [6]), 0.2 µg/mL. Moreover, the MIC was ≤ 0.1 µg/mL in the series on Kl. pneumoniae Y-50 (setting [7]); 3.13 µg/mL with Klebsiella spp Y-72 (Klebsiella, Y72, 20 h); ≤ 0.1 µg/mL in the series with Pro. mirabilis T-100 (setting [8]); 0.39 µg/mL against Pro. mirabilis T-111 (Proteus mirabilis, T111, 20 h); ≤ 0.1 µg/mL in the series with Pro. morganii T-216 (setting [9]); 6.25 µg/mL in series [2] (setting [10]). Besides, inhibition of growth with Ser. marcescens IID620 (setting [11]) (MIC) required 3.13 µg/mL.
Consider `CO/N=C(\C(=O)NC1C(=O)N2C(C(=O)O)=C(CNC(=O)c3ccco3)CSC12)c1csc(N)n1` (stereo not drawn) [B, Trifluoroacetic acid salt of 7-[2-(2-aminothiazol-4-yl)-2-(syn)-methoxyiminoacetamido]-3-(furan-2-yl-carboxamido)methyl-Δ^3-cephem-4-carboxylic acid], for which the MIC in the series with E. coli NIHJ (setting [3]) was ≤ 0.1 µg/mL; with Aci. calcoaceticus A-6 (setting [4]), 25 µg/mL; with Al. faecalis B-1 (setting [12]), 12.5 µg/mL; in series [1] (Escherichia coli, 20 h), 0.39 µg/mL; in the series with Ent. cloacae IID977 (setting [5]) it was 25 µg/mL; in the series on Kl. pneumoniae Y-41 (setting [6]), 0.2 µg/mL. The MIC is ≤ 0.1 µg/mL in the series with Kl. pneumoniae Y-50 (setting [7]); 1.56 µg/mL in the series on Klebsiella spp Y-72 (setting [13]); ≤ 0.1 µg/mL in the series with Pro. mirabilis T-100 (setting [8]); 0.2 µg/mL against Pro. mirabilis T-111 (Proteus mirabilis, T111, 20 h); 0.39 µg/mL in the series with Pro. morganii T-216 (setting [9]); 0.78 µg/mL in series [2] (Proteus vulgaris, GN76, 20 h). This compound yielded an MIC in the series with Ser. marcescens IID620 (setting [11]) of 0.2 µg/mL.
In the case of `CO/N=C(\C(=O)NC1C(=O)N2C(C(=O)O)=C(CNC(C)=O)CSC12)c1csc(N)n1` (stereo not drawn) [C, Trifluoroacetic acid salt of 7-[2-(2-aminothiazol-4-yl)-2-(syn)-methoxyiminoacetamido]-3-acetamidomethyl-Δ^3-cephem-4-carboxylic acid], the MIC in the series with E. coli NIHJ (setting [3]) was ≤ 0.1 µg/mL; in the series with Aci. calcoaceticus A-6 (setting [4]), 12.5 µg/mL; in the series with Al. faecalis B-1 (setting [12]) it was 12.5 µg/mL; in series [1] (Escherichia coli, 20 h) it was 0.39 µg/mL; with Ent. cloacae IID977 (setting [5]) it was 50 µg/mL; with Kl. pneumoniae Y-41 (setting [6]), 0.2 µg/mL. Also, the MIC is ≤ 0.1 µg/mL in the series on Kl. pneumoniae Y-50 (setting [7]); 6.25 µg/mL in the series with Klebsiella spp Y-72 (setting [13]); ≤ 0.1 µg/mL in the series on Pro. mirabilis T-100 (setting [8]); 0.39 µg/mL in the series with Pro. mirabilis T-111 (Proteus mirabilis, T111, 20 h); 0.78 µg/mL in the series with Pro. morganii T-216 (Morganella morganii, T216, Pro. morganii T-216, 10^4 cells/plate, 37° C., 20 hours, read-out: MIC); 6.25 µg/mL in series [2] (setting [10]). In addition, in the series with Ser. marcescens IID620 (Serratia marcescens, Ser. marcescens IID620, 10^4 cells/plate, 37° C., 20 hours, read-out: MIC), the MIC amounted to 1.56 µg/mL.
Consider `Cc1nnn(CC2=C(C(=O)O)N3C(=O)C(NC(=O)Cc4csc(N)n4)C3SC2)n1` (centres unmarked), for which the LD50 in “in vivo” is > 3000 mg/kg.
Regarding `CO/N=C(\C(=O)NC1C(=O)N2C(C(=O)O)=C(Cn3cnc(NC(C)=O)n3)CS[C@H]12)c1csc(N)n1.O=C(O)C(F)(F)F` (stereo partly drawn) [A, Trifluoroacetic acid salt of 7-[2-(2-aminothiazol-4-yl)-2-(syn)-methoxyiminoacetamido]-3-[(3-acetamido-1,2,4-triazolyl)methyl]-Δ^3-cephem-4-carboxylic acid], the MIC against E. coli NIHJ is ≤ 0.1 µg/mL; in the series on Aci. calcoaceticus A-6 (10^4 cells/plate) it was 25 µg/mL; in the series with Al. faecalis B-1 (Al. faecalis B-1, 10^4 cells/plate, 37° C., 20 hours), 50 µg/mL; in series [1] (E. coli TK3 (penicillinase-producing), 10^4 cells/plate, 37° C., 20 hours), 0.39 µg/mL; in the series with Ent. cloacae IID977 it was 6.25 µg/mL; with Kl. pneumoniae Y-41, 0.2 µg/mL. For the same compound, the MIC was ≤ 0.1 µg/mL against Kl. pneumoniae Y-50 (10^4 cells/plate); 6.25 µg/mL against Klebsiella spp Y-72 (Klebsiella spp Y-72, 10^4 cells/plate, 37° C., 20 hours); ≤ 0.1 µg/mL with Pro. mirabilis T-100 (10^4 cells/plate); 0.2 µg/mL in the series on Pro. mirabilis T-111 (Pro. mirabilis T-111, 10^4 cells/plate, 37° C., 20 hours); 0.2 µg/mL against Pro. morganii T-216 (Pro. morganii T-216, 10^4 cells/plate, 37° C., 20 hours); 3.13 µg/mL in series [2] (Pro. vulgaris GN76 (cephalosporinase-producing), 10^4 cells/plate, 37° C., 20 hours). The same compound displayed an MIC in the series with Ser. marcescens IID620 (Ser. marcescens IID620, 10^4 cells/plate, 37° C., 20 hours) of 0.78 µg/mL.

One may read the MIC as the lowest concentration that inhibits growth of the organism. As a reminder, the LD50 is the dose expected to kill half of the subjects tested.
